Test results as given in ChEMBL document CHEMBL4261616, “Discovery of heterocyclic replacements for the coumarin core of anti-tubercular FadD32 inhibitors” (Bioorg Med Chem Lett, 2018).
In brackets after ≈: the same amount, converted by molar mass.

Test system: Mycobacterium tuberculosis
Experiment: Antimycobacterial activity against Mycobacterium tuberculosis H37Rv harboring FadD32 mutant after 6 days by resazurin dye based fluorescence assay
Type: functional

Row | Compound | MIC90 [µM]
1 | Cc1cc2nccc(-c3ccccc3)c2c(C)c1-c1ccc(CN2CCOCC2)cc1 | 15.6 (≈ 6.37 µg/mL)
2 | CNC(=O)c1cc(-c2ccccc2Cl)c2c(C)c(-c3ccncc3)c(C)cc2n1 | 6.25 (≈ 2.51 µg/mL)
